In article PMC9874818 (Archiv Der Pharmazie, 2022):
Starred links: 1 amine or outer side, 2 acyl side, 3 side chain; linkers in the order of their positions; H or OH if unused. Residues, ends and D or L forms follow the SMILES beside them. CO = O=C([*:1])[*:2]

Columns and labels:
[1] = cited from earlier work
[2] = molecular target: Furin (human recombinant aa108–715) (Homo sapiens, UniProt P09958); experiment: biochemical
[3] = molecular target: TMPRSS2 (human recombinant) (Homo sapiens, UniProt O15393); type: biochemical; settings: ratio of IC50 values
[4] = molecular target: CATSL (human liver) (Homo sapiens, UniProt P07711); experiment: biochemical
[5] = molecular target: CATSB (human liver) (Homo sapiens, UniProt P07858); experiment: biochemical

Chain of TMPRSS2 (human recombinant) (O15393 whole entry): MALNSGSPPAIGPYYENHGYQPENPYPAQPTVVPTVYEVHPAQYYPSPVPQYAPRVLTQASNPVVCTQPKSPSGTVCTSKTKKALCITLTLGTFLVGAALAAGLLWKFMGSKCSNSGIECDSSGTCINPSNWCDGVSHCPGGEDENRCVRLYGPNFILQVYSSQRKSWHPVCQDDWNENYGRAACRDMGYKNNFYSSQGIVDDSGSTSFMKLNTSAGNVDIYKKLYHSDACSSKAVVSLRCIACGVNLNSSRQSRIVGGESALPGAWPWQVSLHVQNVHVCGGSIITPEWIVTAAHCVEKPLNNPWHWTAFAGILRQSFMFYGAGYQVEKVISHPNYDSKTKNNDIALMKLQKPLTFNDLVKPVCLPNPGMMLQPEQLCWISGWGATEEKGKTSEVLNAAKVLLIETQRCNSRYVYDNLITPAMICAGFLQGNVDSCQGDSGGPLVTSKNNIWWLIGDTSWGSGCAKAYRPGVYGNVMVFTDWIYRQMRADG
Chain of CATSL (human liver) (P07711 114-333): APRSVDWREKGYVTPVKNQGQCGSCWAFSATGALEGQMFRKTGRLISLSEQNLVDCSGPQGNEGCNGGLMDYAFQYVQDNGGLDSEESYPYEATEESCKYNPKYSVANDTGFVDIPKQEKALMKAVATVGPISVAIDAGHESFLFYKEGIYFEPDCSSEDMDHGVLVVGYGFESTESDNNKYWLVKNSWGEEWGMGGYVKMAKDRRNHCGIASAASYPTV
Chain of Furin (human recombinant aa108–715) (P09958 108-715): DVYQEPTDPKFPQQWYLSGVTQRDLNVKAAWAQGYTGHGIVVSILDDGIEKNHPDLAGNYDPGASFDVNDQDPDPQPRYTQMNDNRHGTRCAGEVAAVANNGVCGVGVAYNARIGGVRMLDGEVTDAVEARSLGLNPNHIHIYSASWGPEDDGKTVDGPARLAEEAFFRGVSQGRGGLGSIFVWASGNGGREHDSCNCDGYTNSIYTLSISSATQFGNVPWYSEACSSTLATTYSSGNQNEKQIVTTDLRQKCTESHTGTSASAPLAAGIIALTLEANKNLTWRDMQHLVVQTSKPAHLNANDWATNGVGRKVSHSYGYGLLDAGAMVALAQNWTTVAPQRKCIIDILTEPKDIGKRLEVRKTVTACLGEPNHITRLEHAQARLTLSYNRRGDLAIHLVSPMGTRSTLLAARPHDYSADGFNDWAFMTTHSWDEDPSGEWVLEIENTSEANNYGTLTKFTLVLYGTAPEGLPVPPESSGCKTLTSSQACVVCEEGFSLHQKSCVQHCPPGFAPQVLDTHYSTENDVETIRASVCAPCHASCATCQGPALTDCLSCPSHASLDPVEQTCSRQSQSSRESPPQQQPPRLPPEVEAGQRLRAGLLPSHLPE

## CN(C)C(=O)COC(=O)Cc1ccc(OC(=O)c2ccc(NC(=N)N)cc2)cc1 [camostat]
[1]
  plasma half-life: approximately an hour or less

## N=C(N)c1ccc2cc(OC(=O)c3ccc(N=C(N)N)cc3)ccc2c1 [nafamostat]
[1]
  plasma half-life: approximately an hour or less

## CC(C)[C@H](NC(=O)[C@H](CCCNC(=N)N)NC(=O)N[C@@H](Cc1ccccc1)C(=O)O)C(=O)N[C@H](C=O)CCCNC(=N)N [antipain, L‐Phe‐CO‐L‐Arg‐L‐Val‐L‐Arg‐H] ({Phe-CO}-Arg-Val-Arg-aldehyde)
[2]
  IC50: 4170 nM
[3]
  increase in TMPRSS2 potency over BC-11: 2 fold
[4]
  IC50: 2.74 nM
[5]
  IC50: 24.1 nM
